Experimental data reported in patent US12304894B2, “Derivatives of adamantyl oxadiazoles and pharmaceutically acceptable solvates, hydrates and salts thereof, pharmaceutical composition comprising same, synthesis method, suitable for use as effective and selective inhibitors of the reductase activity of the enzyme 11-beta dehydrogenase type 1 …” (PONTIFICIA UNIVERSIDAD CATOLICA DE CHILE, priority 2019, dated 2025).

Tests used:
[1] = In vivo pharmacokinetics in mice, IV and oral; parameters: species or system male C57BL/6J mice
Method: The animals were classified according to weight and divided into the following groups (Table 7):
20% Kolliphor and 50% PBS at a concentration of 1 mg/mL. From this solution, a 0.4 mg/mL dilution was made for IV administration.
In intravenous (IV) administration, after each compound was administered to the mice, the mice were separated into groups of 3 and were euthanized at times 5, 10, 15, 30, 60, 120, 240, 260, 480 and 1440 minutes. For oral administration (V.O), the mice were separated into groups of 3 and were euthanized at times 15, 30, 60, 120, 240, 260, 480 and 1440 minutes. To obtain zero-time assays, mice were used to which no compound was administered.
Whole blood was obtained from each animal (in microtubes with EDTA); these samples were centrifuged at 9000 g at a temperature of 4° C. for a period of 5 minutes, obtaining the plasma which was stored at −80° C.
In addition, organs such as brain, liver, muscle, epididymal fat, heart and kidney were obtained from the animals, which were frozen in liquid nitrogen and stored at −80° C.
Plasma samples and brain, liver, epididymal fat, and muscle (tissue) samples were analyzed. 2× in volume of water (weight/volume) was added to the tissue samples while 4× in volume of water (weight/volume) was added to the muscle mixture, after which they were homogenized using a Bullet Blender equipment (Next Advance, USA).
All samples were analyzed as a single point by LC-MS/MS in accordance with the analytical methodology already standardized and presented in application example 3.
To begin, a calibration curve was run. For this purpose, the controls, the plasma and organ samples were prepared by adding 180 μL of cold acetonitrile to these, then vortexed for 15 seconds and centrifuged at 6100 g for 30 seconds at 4° C. The supernatant which was obtained from this procedure was diluted in 2 volumes of 0.2% formic acid in water and transferred to a vial that will allow it to be injected into LC-MS/MS.
The conditions for the LC-MS/MS analysis were: • HPLC: Eksigent UltraLC 100 • Autosampler: Eksigent UltraLC 100-XL at RT • Mobile phase: A-0.1% formic acid in water; B-0.1% formic acid in acetonitrile. • Column: YMC Triart 1.9 μm; 2.0×50 mm • Injection volume: 2 μL • Gradient: 5% B for 0.25 min→5-95% B for 0.75 min→95% B for 2 min→95-5% B for 0.25 min→5% B for 0.25 min • Flow: 0.6 mL/min • Mass Spectrometer: Applied Biosystems/SCIEX QTRAP 4500 • Interface: TurbolonSpray (ESI) at 600° C. • Software: Analyst.

[2] = molecular target: T1, recombinant 11β-HSD1 enzyme (Homo sapiens (Human), UniProt P28845); test: 11β-HSD1 oxidase activity (HTRF Cortisol Kit); format: biochemical
T1 sequence (P28845 whole entry): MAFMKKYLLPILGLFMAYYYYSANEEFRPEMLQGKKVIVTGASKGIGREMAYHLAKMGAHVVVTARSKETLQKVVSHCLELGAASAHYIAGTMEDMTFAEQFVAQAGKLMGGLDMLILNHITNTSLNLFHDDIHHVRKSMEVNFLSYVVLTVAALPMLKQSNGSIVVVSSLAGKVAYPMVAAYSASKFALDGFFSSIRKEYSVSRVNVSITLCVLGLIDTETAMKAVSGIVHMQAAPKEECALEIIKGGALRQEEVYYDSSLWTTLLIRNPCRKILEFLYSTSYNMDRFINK
Method: Determination of 11β-HSD1 Oxidase Activity
The Cortisol Kit (Cisbio) product was used for that purpose.
For the analysis, the compounds are reconstituted in DMSO in a stock of 10 mM concentration, from which serial dilutions were prepared for the efficiency curve.
The recombinant 11β-HSD1 enzyme dilutions were prepared in 20 mM Tris Buffer 5 mM EDTA pH 6.0 (Tris buffer).
Initially, the enzyme concentration to be used was determined. For this purpose, a plate for HRTF was prepared with Tris buffer with 100 nM cortisol and 200 μM NADP+, including in the wells of the plate for HTRF together with the enzyme in a 4:1 ratio, respectively, and incubated for 2 hours at 37° C. After this time, the reagents of the Cortisol kit, Cortisol d2 and Cortisol cryptate in sample ratio, Cortisol d2 and cortisol cryptate 2:1:1 were added, incubating this new reaction for 1 hour at room temperature. Subsequently, the fluorescence was determined at 665 and 620 nm.
An HRTF plate was again prepared, where the reaction buffer, the recombinant 11β-HSD1 enzyme and the compound were added in each well in a 3:1:1 ratio, respectively. The plate was incubated at 37° C. for 2 hours. After the incubation time, the reagents of the cortisol kit, cortisol d2 and cortisol cryptate, were added as indicated above. They were then incubated at room temperature for 1 hour to finally read the fluorescence at 665 and 620 nm.

[3] = system: Madin-Darby Canine Kidney (MDCK) cells transfected with human P-glycoprotein (hMDR1); settings: MDCK-MDR1
Method: Madin-Darby Canine Kidney (MDCK) cells were used in this assay, which are stably transfected with the gene encoding human P-glycoprotein (hMDR1). These cells were cultured in DMEM medium (Dulbecco's Modified Eagle's Medium) high in glucose and supplemented with 10% fetal bovine serum, 1% 5 mM pyruvate, 1% non-essential amino acids solution X5, 20,000 IU/mL of penicillin G and 20,000 IU/mL of streptomycin, a temperature of 37° C., 90% relative humidity and 5% CO2. These cells were seeded in sterile plates on the fourth day of growth or until reaching 90% confluence.
Ten days before carrying out the transport analysis, cells were seeded in Transwells® inserts (1.12 cm2) at a density of 60,000 cells/cm^2. The monolayers were supplemented every two days with fresh culture medium. […] In parallel, B-A experiments were performed (1.5 mL of donor solution in basolateral compartment and 0.5 mL buffer in apical). The monolayers were incubated while stirring (50 rpm) at a temperature of 37° C. for a period of 2 hours. Additionally, this assay was performed in the presence of the Pgp inhibitor elacridar (5 μM). After the stir time, the inserts were removed, the compartments were sampled and the cells were transferred to HPLC vials by diluting these samples with mobile phase chromatography. These samples were kept at −20° C. until their analysis time. […]

[4] = molecular target: T1, recombinant 11β-HSD1 enzyme; test: 11β-HSD1 reductase activity (HTRF Cortisol Kit); format: biochemical; settings: 266 nM cortisone, 333 μM NADPH, read-out: 11b-HSD1 reductase (HTRF) IC50
Method: Determination of 11β-HSD1 Reductase Activity
First, stock solutions of the compounds were prepared in DMSO at a concentration of […], of which serial dilutions were made in order to determine the efficacy curve.
As for the recombinant 11β-HSD1 enzyme (Cayman Chemical, MI, USA; Item No. 10007815), it was prepared in Tris Buffer 20 mM EDTA 5 mM pH 6.0 (Tris buffer) at different dilutions.
Initially, the enzyme concentration to be used in the assays in order to evaluate the biological activity of the compounds was determined. The Cortisol Kit product (Cisbio, MA, USA; Cat no. 62CRTPEG) was used for that purpose.
The protocol consisted of preparing the reaction buffer, adding 266 nM cortisone and 333 μM NADPH in Tris buffer. Then, this reaction buffer is added to the wells of the HTRF (Homogeneous Time Resolved Fluorescence) reaction plate together with the enzyme in a 4:1 ratio respectively, and incubated for 2 hours at 37° C. In the case of the control wells, two wells with Tris buffer were added, without compounds.
After the incubation time, the reagents of the Cortisol kit were added, Cortisol d2 and Cortisol cryptate in sample ratio, Cortisol d2 and cortisol cryptate 2:1:1, in a quantity according to the size of the well as indicated by the supplier (for the negative control of the kit, the cortisol d2 is replaced by the kit's reconstitution buffer). This reaction is incubated for 1 hour at room temperature in order to later read the fluorescence at 665 and 620 nm.
Once the enzyme concentration to be used has been determined, the cortisol kit protocol is continued to determine the efficacy curve for the compounds. As previously done, a plate for HTRF was prepared adding to each well of the reaction buffer, the recombinant 11β-HSD1 enzyme and the compounds to be assayed in a 3:1:1 ratio, respectively. The plate was subsequently incubated at 37° C. for 2 hours.
After the incubation time, the reagents of the cortisol kit, cortisol d2 and cortisol cryptate, are added, and were incubated again for 1 hour at room temperature. Finally, the fluorescence of each well was determined at 665 and 620 nm.

Substance: 1-(3-pyridyl)-2-(3-adamantyl-1,2,4-oxadiazol-5-yl)ethane [BD-44]
- AUCExtr ([1]; IV, 2 mg/Kg, plasma): 0.672%
- AUCInf ([1]; IV, 2 mg/Kg, plasma): 369 ng·h/mL
- AUCfinal ([1]; IV, 2 mg/Kg, plasma): 368 ng·h/mL
- CL ([1]; IV, 2 mg/Kg, plasma): 90.3 mL/min/kg
- Vz ([1]; IV, 2 mg/Kg, plasma): 7.95 L/kg
- t1/2 ([1]; IV, 2 mg/Kg, plasma): 1.02 h
- AUCExtr ([1]; PO, 10 mg/Kg, plasma): 1.39%
- AUCInf ([1]; PO, 10 mg/Kg, plasma): 148 ng·h/mL
- AUCfinal ([1]; PO, 10 mg/Kg, plasma): 146 ng·h/mL
- CL ([1]; PO, 10 mg/Kg, plasma): 1120 mL/min/kg
- F ([1]; PO, 10 mg/Kg, plasma): 8.00%
- Vz ([1]; PO, 10 mg/Kg, plasma): 102 L/kg
- t1/2 ([1]; PO, 10 mg/Kg, plasma): 1.05 h
- tmax ([1]; PO, 10 mg/Kg, plasma): 0.5 h
- mean time (of elimination) of the drug ([1]; administered intravenously, plasma): 1.02 h
- mean time (of elimination) of the drug ([1]; administered orally, plasma): 1.05 h
- time post administration up to which compound was detected ([1]; both intravenously and orally, plasma): up to 6 hours
- detection in tissues (brain, liver, fat, muscle) ([1]; oral and intravenous administration): not detected in the tissues assayed
- bioavailability / apparent availability ([1]; plasma): low apparent availability
- 11b-HSD1 oxidase (activ rem %) 100 nM ([2]; remaining activity at 100 nM compound): 107.0%
- 11b-HSD1 oxidase (activ rem %) 100 uM ([2]; remaining activity at 100 uM compound): 94.3%
- Papp compared with high permeability marker minoxidil [3]: higher than those of the high permeability marker minoxidil
- IC50 [4]: 3.9 nM
